Source: PubChem BioAssay (NCI)
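Five concentrations, 48 hours, 96-well plates. The concentration for full growth arrest is given as TGI.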

How the values were obtained:
Assay in all cases: NCI-60 cell line screen, 48 h
DU-145 prostate = system: DU-145 prostate
NCI-H226 lung = system: NCI-H226 lung
OVCAR-8 ovarian = system: OVCAR-8 ovarian
KM12 colon = system: KM12 colon
UO-31 renal = system: UO-31 renal
NCI-H460 lung = system: NCI-H460 lung
TK-10 renal = system: TK-10 renal
HOP-92 NSCLC = system: HOP-92 NSCLC
SK-OV-3 ovarian = system: SK-OV-3 ovarian
SF-295 CNS = system: SF-295 CNS
SF-268 CNS = system: SF-268 CNS
UACC-257 melanoma = system: UACC-257 melanoma
EKVX NSCLC = system: EKVX NSCLC
M14 melanoma = system: M14 melanoma
T-47D breast = system: T-47D breast
CCRF-CEM leukemia = system: CCRF-CEM leukemia
MOLT-4 leukemia = system: MOLT-4 leukemia
NCI/ADR-RES ovarian = system: NCI/ADR-RES ovarian
UACC-62 melanoma = system: UACC-62 melanoma
SW-620 colon = system: SW-620 colon
IGROV1 ovarian = system: IGROV1 ovarian
PC-3 prostate = system: PC-3 prostate
OVCAR-5 ovarian = system: OVCAR-5 ovarian
HCT-116 colon = system: HCT-116 colon
NCI-H23 lung = system: NCI-H23 lung
K-562 leukemia = system: K-562 leukemia
HL-60(TB) leukemia = system: HL-60(TB) leukemia
SNB-75 CNS = system: SNB-75 CNS
RPMI-8226 leukemia = system: RPMI-8226 leukemia
HOP-62 NSCLC = system: HOP-62 NSCLC
SF-539 CNS = system: SF-539 CNS
NCI-H522 lung = system: NCI-H522 lung
ACHN renal = system: ACHN renal
RXF 393 renal = system: RXF 393 renal
U251 CNS = system: U251 CNS
MDA-MB-435 = system: MDA-MB-435
CAKI-1 renal = system: CAKI-1 renal
MDA-MB-231 breast = system: MDA-MB-231 breast
HT29 colon = system: HT29 colon
786-0 renal = system: 786-0 renal
BT-549 breast = system: BT-549 breast
COLO 205 colon = system: COLO 205 colon
MDA-N = system: MDA-N
SK-MEL-28 melanoma = system: SK-MEL-28 melanoma
OVCAR-4 ovarian = system: OVCAR-4 ovarian
A549 NSCLC = system: A549 NSCLC
SN12C renal = system: SN12C renal
MALME-3M melanoma = system: MALME-3M melanoma
SR leukemia = system: SR leukemia
OVCAR-3 ovarian = system: OVCAR-3 ovarian
HS 578T breast = system: HS 578T breast
LOX IMVI melanoma = system: LOX IMVI melanoma
SK-MEL-2 melanoma = system: SK-MEL-2 melanoma
A498 renal = system: A498 renal
HCT-15 colon = system: HCT-15 colon
MCF7 breast = system: MCF7 breast
SNB-19 CNS = system: SNB-19 CNS
SK-MEL-5 melanoma = system: SK-MEL-5 melanoma
HCC-2998 colon = system: HCC-2998 colon

Q: Which results are given for `CC(C)C1(O)C(=O)N(c2c(F)c(F)c(F)c(F)c2F)C(=S)N1CCSc1ccccc1` (stereo unspecified)?
A: TGI (DU-145 prostate): 30.9 µM; TGI (NCI-H226 lung): 38.7 µM; TGI (OVCAR-8 ovarian): 33.8 µM; TGI (KM12 colon): 31.5 µM; TGI (UO-31 renal): 28.9 µM; TGI (NCI-H460 lung): 38.4 µM; TGI (TK-10 renal): 27.9 µM; TGI (HOP-92 NSCLC): 22.2 µM; TGI (SK-OV-3 ovarian): 31 µM; TGI (SF-295 CNS): 32.1 µM; TGI (SF-268 CNS): 33.2 µM; TGI (UACC-257 melanoma): 32.4 µM; TGI (EKVX NSCLC): 33.5 µM; TGI (M14 melanoma): 31.9 µM; TGI (T-47D breast): 33.6 µM; TGI (CCRF-CEM leukemia): 31.7 µM; TGI (MOLT-4 leukemia): 30.7 µM; TGI (NCI/ADR-RES ovarian): 31 µM; TGI (UACC-62 melanoma): 30.6 µM; TGI (SW-620 colon): 30.3 µM; TGI (IGROV1 ovarian): 31.2 µM; TGI (PC-3 prostate): 29.2 µM; TGI (OVCAR-5 ovarian): 33 µM; TGI (HCT-116 colon): 32.1 µM; TGI (NCI-H23 lung): 32.9 µM; TGI (K-562 leukemia): 26.7 µM; TGI (HL-60(TB) leukemia): 29.2 µM; TGI (SNB-75 CNS): 31.1 µM; TGI (RPMI-8226 leukemia): 28.7 µM; TGI (HOP-62 NSCLC): 34.6 µM; TGI (SF-539 CNS): 35.1 µM; TGI (NCI-H522 lung): 30.5 µM; TGI (ACHN renal): 31.3 µM; TGI (RXF 393 renal): 33.1 µM; TGI (U251 CNS): 32.1 µM; TGI (MDA-MB-435): 32.8 µM; TGI (CAKI-1 renal): 24.7 µM; TGI (MDA-MB-231 breast): 26.4 µM; TGI (HT29 colon): 32.5 µM; TGI (786-0 renal): 33.3 µM; TGI (BT-549 breast): 30.4 µM; TGI (COLO 205 colon): 32.9 µM; TGI (MDA-N): 31.3 µM; TGI (SK-MEL-28 melanoma): 30.3 µM; TGI (OVCAR-4 ovarian): 29.1 µM; TGI (A549 NSCLC): 29.2 µM; TGI (SN12C renal): 29.3 µM; TGI (MALME-3M melanoma): 31.6 µM; TGI (SR leukemia): 43 µM; TGI (OVCAR-3 ovarian): 30.1 µM; TGI (HS 578T breast): 39.7 µM; TGI (LOX IMVI melanoma): 30.1 µM; TGI (SK-MEL-2 melanoma): 32.5 µM; TGI (A498 renal): 29.8 µM; TGI (HCT-15 colon): 33 µM; TGI (MCF7 breast): 31.7 µM; TGI (SNB-19 CNS): 31.9 µM; TGI (SK-MEL-5 melanoma): 32.7 µM; TGI (HCC-2998 colon): 34.8 µM

Q: What does the source list for `Nc1nc(Cl)cc(NCC2(O)CCCC2)n1`?
A: TGI (DU-145 prostate): > 100 µM; TGI (NCI-H226 lung): > 100 µM; TGI (OVCAR-8 ovarian): > 100 µM; TGI (KM12 colon): > 100 µM; TGI (UO-31 renal): > 100 µM; TGI (NCI-H460 lung): > 100 µM; TGI (TK-10 renal): > 100 µM; TGI (HOP-92 NSCLC): > 100 µM; TGI (SK-OV-3 ovarian): > 100 µM; TGI (SF-295 CNS): > 100 µM; TGI (SF-268 CNS): > 100 µM; TGI (UACC-257 melanoma): > 100 µM; TGI (EKVX NSCLC): > 100 µM; TGI (T-47D breast): > 100 µM; TGI (CCRF-CEM leukemia): > 100 µM; TGI (MOLT-4 leukemia): > 100 µM; TGI (NCI/ADR-RES ovarian): > 100 µM; TGI (UACC-62 melanoma): > 100 µM; TGI (SW-620 colon): > 100 µM; TGI (IGROV1 ovarian): > 100 µM; TGI (PC-3 prostate): > 100 µM; TGI (OVCAR-5 ovarian): > 100 µM; TGI (HCT-116 colon): > 100 µM; TGI (NCI-H23 lung): > 100 µM; TGI (K-562 leukemia): > 100 µM; TGI (HL-60(TB) leukemia): > 100 µM; TGI (SNB-75 CNS): > 100 µM; TGI (RPMI-8226 leukemia): > 100 µM; TGI (HOP-62 NSCLC): > 100 µM; TGI (SF-539 CNS): > 100 µM; TGI (NCI-H522 lung): > 100 µM; TGI (ACHN renal): > 100 µM; TGI (RXF 393 renal): > 100 µM; TGI (U251 CNS): > 100 µM; TGI (MDA-MB-435): > 100 µM; TGI (CAKI-1 renal): > 100 µM; TGI (MDA-MB-231 breast): > 100 µM; TGI (HT29 colon): > 100 µM; TGI (786-0 renal): > 100 µM; TGI (BT-549 breast): > 100 µM; TGI (COLO 205 colon): > 100 µM; TGI (MDA-N): > 100 µM; TGI (SK-MEL-28 melanoma): > 100 µM; TGI (OVCAR-4 ovarian): > 100 µM; TGI (A549 NSCLC): > 100 µM; TGI (SN12C renal): > 100 µM; TGI (MALME-3M melanoma): > 100 µM; TGI (SR leukemia): > 100 µM; TGI (OVCAR-3 ovarian): > 100 µM; TGI (HS 578T breast): > 100 µM; TGI (LOX IMVI melanoma): > 100 µM; TGI (SK-MEL-2 melanoma): > 100 µM; TGI (A498 renal): > 100 µM; TGI (HCT-15 colon): > 100 µM; TGI (MCF7 breast): > 100 µM; TGI (SK-MEL-5 melanoma): > 100 µM; TGI (HCC-2998 colon): > 100 µM
